Measured values published in patent publication US20250092010A1, “DIHYDRO-2H-ISOINDOLE ESTER COMPOUND” (Shanghai Maius Pharmaceutical Co. Ltd., priority 2021, published 2025).

Assays:
[1] = Pharmacokinetic assays after oral gavage administration to rats; assay type: in vivo, male SD rats; set-up: Tmax / AUC(0-∞): concentration or dose not given beside the values; AUMC(0-t) / AUMC(0-∞): unit not given here; conditions: for average retention time / time to peak concentration / AUC(0-∞) / AUMC(0-t) / AUMC(0-∞) / CLz/F / Cmax / MRT(0-t) / MRT(0-∞) / Tmax / VRT(0-t) / VRT(0-∞) / t½z / AUC(0-t): active metabolite; for AUC value of the active metabolite equivalent to % of that of the existing drugs: existing drugs administered at the same molar amount; for AUC(0-∞) / AUMC(0-t) / AUMC(0-∞) / CLz/F / Cmax / MRT(0-t) / MRT(0-∞) / Tmax / VRT(0-t) / VRT(0-∞) / t½z / AUC(0-t): plasma, oral gavage, male SD rats; for AUC(0-t): suspension in 0.5% CMC-Na
Experimental: Instruments: ultra high performance liquid chromatography (Acquity UPLC, Waters) system; triple quadrupole mass spectrometer (Qtrap 5500, Sciex); high-speed refrigerated centrifuge (5430R, Eppendorf).
Chromatography Condition: Column: 2.1×50 mm (1.7 μm, BEH C18, Waters); Column Temperature: 45° C.; Mobile Phase: 0.1% aqueous solution of formic acid (A)/acetonitrile; Gradient: see the table below: […]
Mass Spectrometry Condition: Mode: positive ion multiple reaction monitoring (MRM); Curtain Gas: 45 psi; Gas 1:45 psi; Gas 2:45 psi; Ion Source Temperature: 500° C.; Ion Source Voltage: 5000 V. Precursor ions (Q1), product ions (Q3) and collision energy (CE) of some compounds are listed in the table below:
Experimental Animals: male SD rats, 6 in each group, weighing 200-220 grams, fasting overnight before experimentation.
Preparation of Drugs: lenalidomide, as a reference drug, and the test compounds (Compounds 1-10) were accurately weighed and dispensed in 0.5% CMC-Na solutions, resulting in suspensions.
Drug Administration to and Blood Collection from Animals: the drugs were oral gavage administered to the rats, and 100-μl blood samples were taken before administration and 10 min, 20 min, 40 min, 1 h, 1.5 h, 2 h, 3 h, 5 h, 8 h, 12 h, 21 h, 24 h and 30 h after administration. Each sample was placed in an ice bath, centrifuged for plasma collection, frozen and stored.
Plasma drug concentration Data and Calculation of Pharmacokinetic Parameters: Plasma drug concentration data was processed using MultiQuan 3.0 (Sciex), and pharmacokinetic parameters were calculated using DAS 2.0 software. Plasma drug concentrations were measured in ug/L.

[2] = patients, cited from earlier work

Row | average retention time [1] [h] | time to peak concentration [1] [h] | AUC value of the active metabolite equivalent to % of that of the existing drugs [1] [%] | AUC(0-∞) [1] [ng·h/mL] | AUMC(0-t) [1] | AUMC(0-∞) [1] | CLz/F [1] [mL/min/kg] | Cmax [1] [ng/mL] | MRT(0-t) [1] [h] | MRT(0-∞) [1] [h] | Tmax [1] [h] | VRT(0-t) [1] [h^2] | VRT(0-∞) [1] | t½z [1] [h] | AUC(0-t) [1] [ng·h/mL] | SMILES | myelosuppression grade ([2]; 50 mg per day, 28th day of treatment) | maximum tolerated dose (MTD) ([2]; clinical study) [mg per day]
1 |  |  |  | 1257 ± 209.6 | 8749 ± 352.6 | 8954 ± 336.4 | 70 ± 15 | 158 ± 31.1 | 4 ± 0.5 | 1.1 ± 0.6 | 4 ± 0.5 | 11 ± 1.8 | 11.8 ± 2.1^ h^2 | 3.0 ± 0.3 | 1022 ± 214.5 | CCCCCCOC(=O)Nc1cccc2c1CN(C1CCC(=O)NC1=O)C2=O (centres unmarked) [Compound 5] |  | 
2 | 8.6 | 7 | 61 | 5229.3 ± 755.1 | 44683.6 ± 4956.6 | 45199.7 ± 4922.6 | 98.3 ± 17 | 405.4 ± 89.8 | 8.6 ± 0.6 | 8.7 ± 0.6 | 7 ± 1.5 | 20 ± 2.5 | 21.8 ± 2.8 h^2 | 2.9 ± 0.4 | 5217 ± 754.8 | Cc1oc(=O)oc1COC(=O)Nc1cccc2c1CN(C1CCC(=O)NC1=O)C2=O (centres unmarked) [Compound 6] |  | 
3 |  |  |  | 421.5 ± 55.6 | 3596 ± 401.3 | 3689 ± 411.6 | 63.3 ± 15 | 105.3 ± 24.1 | 3.8 ± 0.5 | 3.9 ± 0.5 | 3.8 ± 1.1 | 9.8 ± 1.5 | 9.9 ± 1.6 h^2 | 2.9 ± 0.3 | 489.4 ± 50.3 | CCCCCCCCCCCOC(=O)Nc1cccc2c1CN(C1CCC(=O)NC1=O)C2=O (centres unmarked) [Compound 8] |  | 
4 |  |  |  | 1765 ± 226.3 | 13691 ± 587.2 | 14002 ± 589.6 | 65 ± 13 | 163.2 ± 26.4 | 5.2 ± 0.7 | 5.2 ± 0.7 | 5 ± 0.9 | 14 ± 2.1 | 14.2 ± 2.2 h^2 | 3.1 ± 0.5 | 1568 ± 205.4 | CCC(CC)COC(=O)Nc1cccc2c1CN(C1CCC(=O)NC1=O)C2=O (centres unmarked) [Compound 10] |  | 

More lines, now with the values behind:

Row | SMILES | average retention time [1] [h] | time to peak concentration [1] [h] | AUC value of the active metabolite equivalent to % of that of the existing drugs [1] [%] | AUC(0-∞) [1] [ng·h/mL] | AUMC(0-t) [1] | AUMC(0-∞) [1] | CLz/F [1] [mL/min/kg] | Cmax [1] [ng/mL] | MRT(0-t) [1] [h] | MRT(0-∞) [1] [h] | Tmax [1] [h] | VRT(0-t) [1] [h^2] | VRT(0-∞) [1] | t½z [1] [h] | AUC(0-t) [1] [ng·h/mL] | myelosuppression grade ([2]; 50 mg per day, 28th day of treatment) | maximum tolerated dose (MTD) ([2]; clinical study) [mg per day]
5 | CC(C)OC(=O)Nc1cccc2c1CN(C1CCC(=O)NC1=O)C2=O (centres unmarked) [Compound 1] | 4.5 | 0.8 | 45 | 3889.6 ± 435.6 | 32705.8 ± 3125.3 | 33484.2 ± 3040.7 | 71.7 ± 17 | 543.6 ± 68.5 | 4.5 ± 0.7 | 4.6 ± 0.6 | 0.8 ± 0.4 | 13 ± 2.2 | 14.3 ± 2.1 h^2 | 2.8 ± 0.3 | 3822 ± 424.5 |  | 
6 | CCCCCCCCOC(=O)Nc1cccc2c1CN(C1CCC(=O)NC1=O)C2=O (centres unmarked) [Compound 7] |  |  |  | 584.3 ± 50.3 | 3965 ± 415.1 | 4123 ± 446.1 | 68.3 ± 18.3 | 135 ± 23.0 | 3.8 ± 0.7 | 3.8 ± 0.8 | 3.5 ± 0.8 | 10 ± 1.3 | 10.5 ± 1.3 h^2 | 3.1 ± 0.2 | 503.2 ± 42.6 |  | 
7 | CCCCCCCCCCCCCCCCCCOC(=O)Nc1cccc2c1CN(C1CCC(=O)NC1=O)C2=O (centres unmarked) [Compound 9] |  |  |  | 456 ± 48.0 | 3126 ± 298.1 | 3360 ± 318.6 | 70 ± 16.7 | 95.6 ± 22.2 | 3.5 ± 0.6 | 3.6 ± 0.7 | 4.1 ± 0.8 | 10 ± 1.5 | 10.2 ± 1.5 h^2 | 3.0 ± 0.4 | 402.5 ± 51.6 |  | 
8 | Nc1cccc2c1CN(C1CCC(=O)NC1=O)C2=O (centres unmarked) [reference drug, lenalidomide] |  |  |  |  |  |  |  |  |  |  |  |  |  |  |  | Grade 3 myelosuppression | 25
